{"source": "patent US11331364B2", "about": "“Use for JNK inhibitor molecules for treatment of various diseases” (Xigen Inflammation Ltd., priority 2014, dated 2022)", "key": {"[1]": {"test_system": "mouse model of scopolamine-induced dry eye", "assay": "Scopolamine-induced dry eye, topical ocular TID 21 days (TBUT, PRTT, histopathology)", "type": "in vivo", "details": "for Mean PRTT AUC: Day 7-21, in mm·day (unit assumed); for Mean Calculated TBUT AUC: Day 7 to Day 21, in s·day (unit assumed)", "protocol": "The objective of this study was to assess the effects of two different compounds, the all-D-retro-inverso JNK-inhibitor (poly-)peptide of SEQ ID NO: 197 and the JNK inhibitor (poly-)peptide of SEQ ID NO: 172, at three dose levels in a mouse model of scopolamine-induced dry eye.\nThe peptides of SEQ ID NO: 197 and SEQ ID NO: 172 were tested for efficacy in this murine model of dry eye. The peptides were both tested at a low, medium and a high dose. […] The vehicle, which also served as the negative control, was 0.9% Sodium Chloride for Injection USP.\nThe study consisted of a total of 9 groups of female C57BL/6 mice, comprising 8 groups of 12 mice each and an additional group of 4 mice. Bilateral short-term dry eye was induced by a combination of scopolamine hydrobromide (Sigma-Aldrich Corp., St. Louis, Mo.) injection (subcutaneous (SC), four times daily, 0.5 mg/dose, Days 0-21) and by exposing mice to the drying environment of constant air draft. […] Mice of Group 9 were maintained as un-induced, (no dry eye) untreated controls.\nDuring the in-life (treatment) period, clinical observations were recorded once daily; slit-lamp examination (SLE) with corneal fluorescein staining, tear break-up time test (TBUT), and phenol red thread test (PRTT) were performed three times per week. Necropsies were performed on Day 22; eyes, eye lids, conjunctivae, and lacrimal glands were collected from both eyes of each animal. Tissues from the right eyes (oculus dexter, OD) were fixed and then evaluated microscopically. Tissues from the left eyes (oculus sinister; OS) were flash-frozen in liquid nitrogen and stored frozen at −80° C. for possible subsequent analyses.\nThe TBUT test was conducted three times weekly by measuring the time elapsed in seconds between a complete blink after application of fluorescein to the cornea and the appearance of the first random dry spot in the tear film. […] At least ninety seconds later, corneal epithelial damage was graded using a slit-lamp with a cobalt blue filter after another drop of 0.1% fluorescein was reapplied to the cornea; the cornea then was scored per the Draize ocular scale.\nTear production was measured three times a week in both eyes using PRTT test strips (Zone-Quick; Menicon, Nagoya, Japan). Prior to the first treatment of the day, a thread was applied to the lateral canthus of the conjunctival fornix of each eye for 30 seconds under slit-lamp biomicroscopy. Tear migration up the tread (i.e., the length of the wetted cotton thread) was measured using a millimeter scale.\nAt necropsy on Day 22, both eyes from each animal, including the globes, lacrimal glands, eyelids, and conjunctivae, were excised. The right eye and associated tissues were fixed by overnight submersion in modified Davidson's solution followed by transfer to 10% neutral buffered formalin (NBF). The fixed tissues of the right eye were dehydrated, embedded in paraffin, sectioned at 3 to 5-μm thicknesses, and slide-mounted tissues were stained with hematoxylin and eosin (H & E). Stained slides were evaluated via light microscopy. Detailed and complete histopathologic assessment was conducted on all parts of the eye, with at least two section levels being examined histopathologically for each right eye. Special attention was paid to the cornea, epithelia (including goblet cells) of the conjunctiva and cornea, as well as the lacrimal gland. These tissues were scored for injury based upon a 0-4 scale, with 0 being normal, 1 being minimal, 2 being mild, 3 being moderate, and 4 being severe. For each cornea, scores were based on corneal epithelium thickness, and corneal inflammation."}, "[2]": {"test_system": "endotoxins-induced uveitis albino rat model", "assay": "Endotoxins-induced uveitis (EIU), single intravenous injection, clinical scoring", "type": "in vivo", "parameters": "key to clinical score (mean±SEM) / clinical score, median: clinical ocular inflammation score per eye, 0 to 4", "details": "24 h after LPS", "protocol": "The anti-inflammatory potency of the JNK inhibitor of SEQ ID NO: 172 was tested in albino rats following intravenous administration (EIU/LPS model). The aim of this study was to determine the effects of single intravenous injections of SEQ ID NO: 172 (0.015, 0.18, and 1.80 mg/kg) on the inflammatory response in an endotoxins-induced uveitis albino rat model and to compare these affects to those obtained with prior art JNK inhibitor of SEQ ID NO: 197 (2 mg/kg). As a further control served phosphate sodic dexamethasone (“reference”) and vehicle (0.9% NaCl).\nSixty (60) male Lewis rats were randomly divided into six (6) groups often (10) animals each. 0.9% NaCl (vehicle, “control”), SEQ ID NO: 197 at 2 mg/kg and SEQ ID NO: 172 at three concentrations (1.80 mg/kg, 0.18 mg/kg and 0.015 mg/kg) were administered by intravenous injection just before EIU induction (on the day of induction). Accordingly, phosphate sodic dexamethasone (20 Dg/eye, 5 μl; “reference”) was administered by a single sub-conjunctival injection in both eyes just before EIU induction (on the day of induction). EIU was induced by footpad injection of lipopolysaccharide (LPS, 1 mg/kg). 24 hours after LPS injection, inflammatory response was evaluated by clinical scoring.\nThe intensity of clinical ocular inflammation was scored on a scale from 0 to 4 for each eye: […]"}}, "note": "Square brackets hold non-standard residues; d marks the D form. Peptide text beside a SMILES is read from it.", "data": [{"smiles": "CC(C)C[C@H](NC(=O)[C@H](CC(N)=O)NC(=O)[C@H](CC(C)C)NC(=O)[C@@H](NC(=O)[C@@H](C)NC(=O)[C@@H]1CCCN1C(=O)[C@H](CCCNC(=N)N)NC(=O)[C@@H](CCCCN)NC(=O)[C@@H]1CCCN1C(=O)[C@H](CCCNC(=N)N)NC(=O)[C@@H](CCCNC(=N)N)NC(=O)[C@H](CCCNC(=N)N)NC(=O)[C@H](CCCNC(=N)N)NC(=O)[C@H](CCC(N)=O)NC(=O)[C@@H](CCCNC(=N)N)NC(=O)[C@H](CCCNC(=N)N)NC(=O)[C@H](CCCCN)NC(=O)[C@H](CCCCN)NC(=O)[C@H](N)CCCNC(=N)N)[C@@H](C)O)C(=O)N[C@H](Cc1ccccc1)C(N)=O", "note": "[SEQ ID NO: 172, rKKRrQRRrRPkRPaTLNLf] (H-[dR]KKR[dR]QRR[dR]RP[dK]RP[dA]TLNL[dF]-NH2; N-terminus assumed)", "values": [{"measurement": "TBUT mean nadir (Day 7)", "setting": "[1]; 0.05% TID OU", "result": "6.6 ± 0.4", "unit": "s"}, {"measurement": "TBUT mean peak (Day 9)", "setting": "[1]; 0.05% TID OU", "result": "8.0 ± 0.4", "unit": "s"}, {"measurement": "Mean PRTT AUC", "setting": "[1]; 0.05% TID OU", "result": 44.38}, {"measurement": "Mean Calculated TBUT AUC", "setting": "[1]; 0.05% TID OU", "result": 102.98}, {"measurement": "TBUT mean nadir (Day 7)", "setting": "[1]; 0.2% TID OU", "result": "6.7 ± 0.4", "unit": "s"}, {"measurement": "TBUT mean peak (Day 9)", "setting": "[1]; 0.2% TID OU", "result": "10.0 ± 0.7", "unit": "s"}, {"measurement": "histological cornea scores compared to cyclosporine group", "setting": "[1]; 0.2% TID OU", "result": "not significantly different than the cyclosporine group scores"}, {"measurement": "Mean PRTT AUC", "setting": "[1]; 0.2% TID OU", "result": 44.85}, {"measurement": "Mean Calculated TBUT AUC", "setting": "[1]; 0.2% TID OU", "result": 119.08}, {"measurement": "TBUT mean nadir (Day 7)", "setting": "[1]; 0.6% TID OU", "result": "6.7 ± 0.3", "unit": "s"}, {"measurement": "TBUT mean peak (Day 9)", "setting": "[1]; 0.6% TID OU", "result": "9.9 ± 0.8", "unit": "s"}, {"measurement": "histological cornea scores compared to cyclosporine group", "setting": "[1]; 0.6% TID OU", "result": "not significantly different than the cyclosporine group scores"}, {"measurement": "Mean PRTT AUC", "setting": "[1]; 0.6% TID OU", "result": 46.10}, {"measurement": "Mean Calculated TBUT AUC", "setting": "[1]; 0.6% TID OU", "result": 119.31}, {"measurement": "TBUT AUC compared with vehicle control", "setting": "[1]; SEQ ID NO: 172 0.05%, 0.2% and 0.6%, cyclosporine 0.05%, Kruskal-Wallis", "result": "significant increases in the TBUT AUC"}, {"measurement": "PRTT, aqueous tear production", "setting": "[1]; low, mid and high dose levels", "result": "produced significantly more aqueous tears compared to vehicle-treated animals"}, {"measurement": "clinical score (mean±SEM)", "setting": "[2]; 0.015 mg/kg i.v.", "result": "2.3±0.3"}, {"measurement": "clinical score, median", "setting": "[2]; 0.015 mg/kg i.v.", "result": 2}, {"measurement": "reduction of inflammation vs vehicle", "setting": "[2]; 0.015 mg/kg i.v.", "result": 36, "unit": "%"}, {"measurement": "clinical score (mean±SEM)", "setting": "[2]; 0.18 mg/kg i.v.", "result": "2.4±0.3"}, {"measurement": "clinical score, median", "setting": "[2]; 0.18 mg/kg i.v.", "result": 2}, {"measurement": "reduction of inflammation vs vehicle", "setting": "[2]; 0.18 mg/kg i.v.", "result": 33, "unit": "%"}, {"measurement": "clinical score (mean±SEM)", "setting": "[2]; 1.80 mg/kg i.v.", "result": "2.1±0.3"}, {"measurement": "clinical score, median", "setting": "[2]; 1.80 mg/kg i.v.", "result": 2}, {"measurement": "reduction of severity of ocular inflammation vs vehicle", "setting": "[2]; 1.80 mg/kg i.v.", "result": 42, "unit": "%"}]}, {"smiles": "CC(C)C[C@@H](NC(=O)[C@@H](Cc1ccccc1)NC(=O)[C@H]1CCCN1C(=O)[C@@H](CCC(N)=O)NC(=O)[C@H](NC(=O)[C@H]1CCCN1C(=O)[C@@H](CCCNC(=N)N)NC(=O)[C@@H](CO)NC(=O)[C@@H](CCC(N)=O)NC(=O)[C@H](N)CC(=O)O)C(C)C)C(=O)N[C@H](CC(N)=O)C(=O)N[C@H](CC(C)C)C(=O)N[C@@H](C(=O)N[C@@H](C(=O)N1CCC[C@@H]1C(=O)N[C@H](CCCNC(=N)N)C(=O)N[C@H](CCCCN)C(=O)N1CCC[C@@H]1C(=O)N[C@H](CCCNC(=N)N)C(=O)N1CCC[C@@H]1C(=O)N1CCC[C@@H]1C(=O)N[C@H](CCCNC(=N)N)C(=O)N[C@H](CCCNC(=N)N)C(=O)N[C@H](CCCNC(=N)N)C(=O)N[C@H](CCC(N)=O)C(=O)N[C@H](CCCNC(=N)N)C(=O)N[C@H](CCCNC(=N)N)C(=O)N[C@H](CCCCN)C(=O)N[C@H](CCCCN)C(=O)N[C@H](CCCNC(=N)N)C(=O)NCC(N)=O)[C@H](C)O)[C@H](C)O", "note": "[SEQ ID NO: 197, dqsrpvqpflnlttprkprpprrrqrrkkrg, reference compound] (H-[dD][dQ][dS][dR][dP][dV][dQ][dP][dF][dL][dN][dL][dT][dT][dP][dR][dK][dP][dR][dP][dP][dR][dR][dR][dQ][dR][dR][dK][dK][dR]G-NH2)", "values": [{"measurement": "corneal changes in comparison to other treatment groups", "setting": "[1]; 0.06% TID OU", "result": "slightly more severe"}, {"measurement": "Mean PRTT AUC", "setting": "[1]; 0.06% TID OU", "result": 39.96}, {"measurement": "Mean Calculated TBUT AUC", "setting": "[1]; 0.06% TID OU", "result": 88.54}, {"measurement": "Mean PRTT AUC", "setting": "[1]; 0.25% TID OU", "result": 42.79}, {"measurement": "Mean Calculated TBUT AUC", "setting": "[1]; 0.25% TID OU", "result": 91.19}, {"measurement": "histological cornea scores compared to cyclosporine group", "setting": "[1]; 0.6% TID OU", "result": "not significantly different than the cyclosporine group scores"}, {"measurement": "Mean PRTT AUC", "setting": "[1]; 0.6% TID OU", "result": 43.17}, {"measurement": "Mean Calculated TBUT AUC", "setting": "[1]; 0.6% TID OU", "result": 89.98}, {"measurement": "PRTT, aqueous tear production", "setting": "[1]; low, mid and high dose levels", "result": "generally dose-dependent increases in PRTT"}, {"measurement": "TBUT", "setting": "[1]; low, mid and high dose levels", "result": "slight generally dose-dependent increases in TBUT"}, {"measurement": "clinical score (mean±SEM)", "setting": "[2]; 2 mg/kg i.v.", "result": "2.2±0.3"}, {"measurement": "clinical score, median", "setting": "[2]; 2 mg/kg i.v.", "result": 2}, {"measurement": "decrease of EIU scores vs vehicle group", "setting": "[2]; 2 mg/kg i.v.", "result": 40, "unit": "%"}]}]}
